Values of other authors in US20230321462A1, “Method for Improving Olfactory Sensitivity” (Kao Corporation, priority 2019, published 2023).

Columns and labels:
Settings in all cases: Table 3; cited from earlier work
[1] = biological target: T1, OR7G2 (Homo sapiens, UniProt Q8NG99)
T1 sequence (Q8NG99 1-324): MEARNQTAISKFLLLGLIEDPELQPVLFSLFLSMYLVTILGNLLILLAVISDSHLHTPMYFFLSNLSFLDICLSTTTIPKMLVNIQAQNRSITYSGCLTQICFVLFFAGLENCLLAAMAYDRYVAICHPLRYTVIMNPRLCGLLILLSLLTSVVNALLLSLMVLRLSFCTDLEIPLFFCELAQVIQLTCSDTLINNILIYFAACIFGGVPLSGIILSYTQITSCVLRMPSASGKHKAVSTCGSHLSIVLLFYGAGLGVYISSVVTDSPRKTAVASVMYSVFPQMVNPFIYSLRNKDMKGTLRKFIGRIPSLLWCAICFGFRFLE

[2] = biological target: T2, OR51D1 (Homo sapiens, UniProt Q8NGF3)
T2 sequence (Q8NGF3 1-324): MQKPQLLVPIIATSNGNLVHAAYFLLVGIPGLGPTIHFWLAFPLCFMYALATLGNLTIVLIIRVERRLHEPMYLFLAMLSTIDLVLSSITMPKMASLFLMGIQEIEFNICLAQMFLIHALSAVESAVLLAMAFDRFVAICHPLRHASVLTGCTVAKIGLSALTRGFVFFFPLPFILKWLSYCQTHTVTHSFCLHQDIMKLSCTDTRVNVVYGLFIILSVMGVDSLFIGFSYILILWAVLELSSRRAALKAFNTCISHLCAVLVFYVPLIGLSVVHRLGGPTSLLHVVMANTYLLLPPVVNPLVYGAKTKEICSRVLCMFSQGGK

[3] = biological target: T3, OR5Al1 (Homo sapiens, UniProt P0C617)
T3 sequence (P0C617 1-329): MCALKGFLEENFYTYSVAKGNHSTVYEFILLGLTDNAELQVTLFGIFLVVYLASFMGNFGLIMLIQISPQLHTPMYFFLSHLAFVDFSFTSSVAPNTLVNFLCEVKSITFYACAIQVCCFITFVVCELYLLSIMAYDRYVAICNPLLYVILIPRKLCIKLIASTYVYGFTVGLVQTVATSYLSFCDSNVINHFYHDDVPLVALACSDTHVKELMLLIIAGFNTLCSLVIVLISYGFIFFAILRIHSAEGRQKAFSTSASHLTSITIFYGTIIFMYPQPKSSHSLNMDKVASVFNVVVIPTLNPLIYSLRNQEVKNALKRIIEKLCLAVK

[4] = biological target: T4, OR2T1 (Homo sapiens, UniProt O43869)
T4 sequence (O43869 1-369): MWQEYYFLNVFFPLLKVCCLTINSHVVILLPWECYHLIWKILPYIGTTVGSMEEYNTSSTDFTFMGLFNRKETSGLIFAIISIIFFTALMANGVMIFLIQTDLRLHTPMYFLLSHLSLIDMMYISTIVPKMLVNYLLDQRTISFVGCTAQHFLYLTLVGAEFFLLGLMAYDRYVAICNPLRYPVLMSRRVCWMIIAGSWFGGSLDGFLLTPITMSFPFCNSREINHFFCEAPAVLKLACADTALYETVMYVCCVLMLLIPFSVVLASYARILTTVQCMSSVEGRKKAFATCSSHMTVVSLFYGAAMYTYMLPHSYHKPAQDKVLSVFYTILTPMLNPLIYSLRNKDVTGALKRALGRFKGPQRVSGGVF

CCCC(=O)O [Butyric acid]
recognized by: recognition by OR7G2 [1] | recognition by OR51D1 [2] | recognition by OR5Al1 [3] | recognition by OR2T1 [4]
